In US5457104A, “Quinolone- and naphthyridonecarboxylic acid derivatives” (Bayer Aktiengesellschaft, priority 1993, dated 1995):
≈ marks a conversion by molar mass, not a printed value.

Columns and labels:
Assay in all cases: MIC, serial dilution test on Iso-sensitest agar
Assay type in all cases: cell-based
E. coli Neumann = details: Escherichia coli, 37° C., approx. 20 hours, approx. 10^4 CFU per inoculation point
Protocol: (§1) The minimum inhibitory concentrations (MIC) were determined by the serial dilution test on Iso-sensitest agar (Oxoid). For each test substance, a series of agar plates was prepared which contained concentrations of the active substance which decreased at a rate of in each case twice the dilution factor. The agar plates were inoculated using a multipoint inoculator (Denley). For inoculation, overnight cultures of the pathogens were used which had previously been diluted in such a manner that each inoculation point contained approximately 10^4 colony-forming units. The inoculated agar plates were incubated at 37° C., and the microbial growth was observed after approx. 20 hours. The MIC value (μg/ml) indicates the lowest active compound concentration at which no growth could be detected by the naked eye.

[1] = test system: Staphylococcus aureus 1756; details: 37° C., approx. 20 hours, approx. 10^4 CFU per inoculation point
Protocol: as §1

Klebsiella pneumoniae 63 = details: 37° C., approx. 20 hours, approx. 10^4 CFU per inoculation point
Protocol: as §1

[2] = test system: Staphylococcus aureus ICB 25701; details: ICB25701, 37° C., approx. 20 hours, approx. 10^4 CFU per inoculation point
Protocol: as §1

[3] = test system: Enterococcus faecalis 27101; details: 37° C., approx. 20 hours, approx. 10^4 CFU per inoculation point
Protocol: as §1

E. coli 455/7 = details: Escherichia coli, 37° C., approx. 20 hours, approx. 10^4 CFU per inoculation point
Protocol: as §1

[4] = test system: Staphylococcus aureus 25768; details: 37° C., approx. 20 hours, approx. 10^4 CFU per inoculation point
Protocol: as §1

[5] = test system: Enterococcus faecalis 9790; details: 37° C., approx. 20 hours, approx. 10^4 CFU per inoculation point
Protocol: as §1

[6] = test system: Klebsiella pneumoniae 8085; details: 37° C., approx. 20 hours, approx. 10^4 CFU per inoculation point
Protocol: as §1

[7] = test system: Acinetobacter caloaceticus 14068; details: 37° C., approx. 20 hours, approx. 10^4 CFU per inoculation point
Protocol: as §1

[8] = test system: Staphylococcus aureus 133; details: 37° C., approx. 20 hours, approx. 10^4 CFU per inoculation point
Protocol: as §1

Mirococcus luteus 9341 = details: 37° C., approx. 20 hours, approx. 10^4 CFU per inoculation point
Protocol: as §1

Providencia sp. 12052 = details: 37° C., approx. 20 hours, approx. 10^4 CFU per inoculation point
Protocol: as §1

Providencia sp. 12012 = details: 37° C., approx. 20 hours, approx. 10^4 CFU per inoculation point
Protocol: as §1

Row | Compound | MIC (E. coli Neumann) | MIC [1] | MIC (Klebsiella pneumoniae 63) | MIC [2] | MIC [3] | MIC (E. coli 455/7) | MIC [4] | MIC [5] | MIC [6] | MIC [7] | MIC [8] | MIC (Mirococcus luteus 9341) | MIC (Providencia sp. 12052) | MIC (Providencia sp. 12012)
1 | NC1C=CCC2CN(c3ccc4c(=O)c(C(=O)O)cn(C5CC5)c4c3Cl)CC12 (stereo not shown) [Example 7] | 0.0078 µg/mL (≈ 0.0195 µM) | 0.0039 µg/mL (≈ 0.00975 µM) | 0.015 µg/mL (≈ 0.0375 µM) | 0.06 µg/mL (≈ 0.15 µM) | 0.015 µg/mL (≈ 0.0375 µM) | 0.5 µg/mL (≈ 1.25 µM) | 2 µg/mL (≈ 5 µM) | 0.03 µg/mL (≈ 0.075 µM) | 0.015 µg/mL (≈ 0.0375 µM) | 0.015 µg/mL (≈ 0.0375 µM) | 0.0039 µg/mL (≈ 0.00975 µM) | 0.03 µg/mL (≈ 0.075 µM) | 1 µg/mL (≈ 2.5 µM) | 0.015 µg/mL (≈ 0.0375 µM)
2 | CC1C=CC(N)C2CN(c3ccc4c(=O)c(C(=O)O)cn(C5CC5)c4c3Cl)CC12 (stereo not shown) [Example 8] | 0.015 µg/mL (≈ 0.0362 µM) | 0.0078 µg/mL (≈ 0.0188 µM) | 0.03 µg/mL (≈ 0.0725 µM) | 0.06 µg/mL (≈ 0.145 µM) | 0.06 µg/mL (≈ 0.145 µM) | 0.5 µg/mL (≈ 1.21 µM) | 2 µg/mL (≈ 4.83 µM) | 0.06 µg/mL (≈ 0.145 µM) | 0.03 µg/mL (≈ 0.0725 µM) | 0.03 µg/mL (≈ 0.0725 µM) | 0.0078 µg/mL (≈ 0.0188 µM) | 0.06 µg/mL (≈ 0.145 µM) | 1 µg/mL (≈ 2.42 µM) | 0.06 µg/mL (≈ 0.145 µM)
3 | NC1C=CCC2CN(c3ccc4c(=O)c(C(=O)O)cn(C5CC5)c4c3F)CC12 (stereo not shown) [Example 20] | 0.03 µg/mL (≈ 0.0782 µM) | 0.015 µg/mL (≈ 0.0391 µM) | 0.03 µg/mL (≈ 0.0782 µM) | 0.25 µg/mL (≈ 0.652 µM) | 0.06 µg/mL (≈ 0.156 µM) | 1 µg/mL (≈ 2.61 µM) | 4 µg/mL (≈ 10.4 µM) | 0.06 µg/mL (≈ 0.156 µM) | 0.03 µg/mL (≈ 0.0782 µM) | 0.06 µg/mL (≈ 0.156 µM) | 0.03 µg/mL (≈ 0.0782 µM) | 0.06 µg/mL (≈ 0.156 µM) | 1 µg/mL (≈ 2.61 µM) | 0.06 µg/mL (≈ 0.156 µM)
4 | CC1C=CC(N)C2CN(c3ccc4c(=O)c(C(=O)O)cn(C5CC5)c4c3F)CC12 (stereo not shown) [Example 21] | 0.015 µg/mL (≈ 0.0377 µM) | 0.015 µg/mL (≈ 0.0377 µM) | 0.3 µg/mL (≈ 0.755 µM) | 0.25 µg/mL (≈ 0.629 µM) | 0.06 µg/mL (≈ 0.151 µM) | 0.5 µg/mL (≈ 1.26 µM) | 2 µg/mL (≈ 5.03 µM) | 0.06 µg/mL (≈ 0.151 µM) | 0.3 µg/mL (≈ 0.755 µM) | 0.03 µg/mL (≈ 0.0755 µM) | 0.015 µg/mL (≈ 0.0377 µM) | 0.125 µg/mL (≈ 0.315 µM) | 1 µg/mL (≈ 2.52 µM) | 0.06 µg/mL (≈ 0.151 µM)
5 | NC1CCN(c2ccc3c(=O)c(C(=O)O)cn(C4CC4)c3c2F)C1 (stereo not shown) [Reference, 7-(3-aminopyrrolidin-1-yl)-1-cyclopropyl-8-fluoro-1,4-dihydro-4-oxo-3-quinolinecarboxylic acid, reference compound] | 0.031 µg/mL (≈ 0.0936 µM) | 0.125 µg/mL (≈ 0.377 µM) | 0.062 µg/mL (≈ 0.187 µM) | 4 µg/mL (≈ 12.1 µM) | 0.25 µg/mL (≈ 0.754 µM) | 1 µg/mL (≈ 3.02 µM) | 16 µg/mL (≈ 48.3 µM) | 0.25 µg/mL (≈ 0.754 µM) | 0.062 µg/mL (≈ 0.187 µM) | 0.25 µg/mL (≈ 0.754 µM) | 0.125 µg/mL (≈ 0.377 µM) | 0.5 µg/mL (≈ 1.51 µM) | 2 µg/mL (≈ 6.04 µM) | 0.06 µg/mL (≈ 0.181 µM)
